pIC50: −log10 of the molar value. Where a name gives a salt, the structure may show the parent alone. Read-outs that look alike come from different tables or passages of the source.
Key:
[1] = target: T1, Acyl-CoA: Cholesterol Acyltransferase (ACAT) (Rattus norvegicus, UniProt Q7TQM4); assay: Inhibition of Acyl-CoA:Cholesterol Acyltransferase (ACAT) in hepatic microsomes; assay type: biochemical, Sprague Dawley rat
T1 construct: centrifuged at 105,000×g for 1 hour to pellet the microsomes; from tissue; host or cells: liver microsomes of fasted male Sprague Dawley rats
T1 sequence (Q7TQM4 1-524): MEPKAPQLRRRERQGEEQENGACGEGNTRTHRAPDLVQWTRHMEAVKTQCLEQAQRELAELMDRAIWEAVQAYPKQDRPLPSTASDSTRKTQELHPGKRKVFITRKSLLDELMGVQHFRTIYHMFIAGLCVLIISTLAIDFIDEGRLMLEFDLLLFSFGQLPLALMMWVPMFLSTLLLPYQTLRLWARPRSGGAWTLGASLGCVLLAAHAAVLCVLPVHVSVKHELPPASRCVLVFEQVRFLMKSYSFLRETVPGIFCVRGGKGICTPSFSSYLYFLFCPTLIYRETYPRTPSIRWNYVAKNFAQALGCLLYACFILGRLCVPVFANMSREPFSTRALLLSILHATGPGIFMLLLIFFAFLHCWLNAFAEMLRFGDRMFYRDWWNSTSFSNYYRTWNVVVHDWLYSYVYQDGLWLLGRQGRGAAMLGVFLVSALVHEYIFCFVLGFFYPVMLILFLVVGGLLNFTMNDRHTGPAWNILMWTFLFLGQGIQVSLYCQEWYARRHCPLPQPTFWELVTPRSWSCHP
Protocol: A. Assay of the Inhibition of Acyl-CoA: Cholesterol Acyltransferase (ACAT) in Hepatic Microsomes
The ability of the compounds to inhibit ACAT, the enzyme responsible for the intracellular synthesis of cholesteryl esters, was tested as follows. Male Sprague Dawley rates weighing 150-300 g were fed rat chow ad libitum. The animals were fasted for twenty-four hours prior to being sacrificed by decapitation. The livers were perfused in situ with 50 ml of cold 0.25M sucrose, excised and homogenized in three volumes of 0.1M phosphate buffer, pH 7.4, that contained 0.5 mM EDTA (ethylenediaminetetraacetic acid), 1.0 mM glutathione, 0.25M sucrose and 20 mM leupeptin. Microsomes were obtained by differential centrifugation; the supernatant from an initial spin at 15,000×g for 15 minutes was centrifuged at 105,000×g for 1 hour to pellet the microsomes. The microsomes were suspended in homogenization buffer, reisolated by centrifugation, and stored at -70° C. Microsomes were used within one month of preparation.
The control assay in a final volume of 200 μl consisted of 200 μg of microsomal protein, 75 μM ^14 C-oleoyl-CoA (10,000 dpm/nmol) in 0.1M phosphate, pH 7.4, that contained 1 mM glutathione. Compounds were added in 5-10 μl of DMSO (dimethyl sulfoxide or ethanol) and additional controls were run with DMSO or ethanol only. All components, except the oleoyl-CoA, were preincubated for 15 min. at 37° C. prior to the initiation of the reaction by the addition of oleoyl CoA. The assay was terminated after 10 min by the addition of 4 ml of chloroform:methanol (2:1, v/v). 20,000 dpm of ^3 H-cholesteryl oleate and 10 μg of unlabeled cholesteryl oleate and oleic acid were added as an internal standard and carrier, respectively. After allowing 10 min. for lipid extraction, 0.8 ml of deionized water was added to separate the solution into two phases. The lower chloroform phase was collected, dried under nitrogen and resuspended in 100 μl of chloroform. The sample containing the neutral lipids was spotted onto a Gelman ITLC-SA polysilicic acid gel-impregnated sheet, which was developed using a hexane: diethyl ether: acetic acid (170:30:1 v/v/v) mobile phase. The lipids were visualized by their interaction with iodine vapor and the cholesteryl ester spot was scraped into a scintillation vial and counted. The specific activity of ACAT in the control incubation averaged 260 pmol/min/mg microsomal protein. The inhibition of ACAT activity by the compounds is shown in Table 7; the data are expressed as the concentration at which ACAT activity is inhibited by 50% (IC50).

[2] = system: murine macrophage-like cell line J744.A1; assay: Inhibition of cholesterol esterification in mammalian cells (macrophage); assay type: cell-based; settings: Mus musculus; J744.A1 macrophage-like cells loaded with ac-LDL, 14C oleic acid
Protocol: B. Assay of the Inhibition of Cholesterol Esterification in Mammalian Cells The esterification of cholesterol was determined in the murine macrophage-like cell line J744.A1. Cells were seeded in 35 mm wells at a density of 300,000 cells per well in 2 mls of Dulbecco's Modified Eagle Medium (DMEM) supplemented with 10% fetal bovine serum (FBS). Cells were incubated at 37° C. in an atmosphere of 5% CO2 and 93% humidity. After 24 hours the media was changed to 0.68 mls 10% FBS-DMEM containing 34 μg of acetylated human low density lipoprotein (ac-LDL) to increase the intracellular concentration of cholesterol and promote esterification. At 41 hours, various inhibitors were added to the cells in DMSO (10 μl/ml maximum). At 43 hours, the cells were pulsed with 0.1 mM ^14 C oleic acid (10,000 dpm/nmol) complexed with BSA (bovine serum albumin) to follow cholesterol ester formation. The experiment was terminated at 45 hours by washing the monolayers 3 times with 3 ml of Tris-buffered saline at 4° C. The lipids were extracted by incubating the monolayers with 1.5 ml of hexane: isopropanol (3:2, v/v) for 30 min. under gentle agitation. During this period, 10,000 dpm ^3 H-cholesteryl linoleate and 10 μg of cholesteryl oleate were added as an internal standard and carrier respectively. The organic solvent was remoted and the cells were washed with an additional 1.0 ml of hexane: isopropanol which was combined with the original extract. The cells were allowed to dry overnight, digested with 1.5 ml of 0.2 N sodium hydroxide for 1 hour and an aliquot of the solubilized protein used for protein determination using the Lowry method. […] Individual lipids were visualized with iodine and the cholesteryl ester spot cut out and transferred to scintillation vials to determine the amount of radioactivity.

[3] = rat hepatic microsomes, 14C-oleoyl-CoA, 37° C., pH 7.4, read-out: In Vitro ACAT IC50

Row | SMILES | pIC50 [1, 3] | pIC50 [2] | pIC50 [1]
1 | COc1ccc(C2=NC(C(F)(F)F)(C(F)(F)F)C(N(C)C(=O)CCCC(C)C)N2C)cc1 (centres unmarked) [Example 34, N-[4,4-bis(trifluoromethyl)-2-(4-methoxyphenyl)-4,5-dihydro-1-methyl-1H-imidazol-5-yl]-N,5-dimethylhexanamide hydrochloride] | 5.05 | – | –
2 | CN(C(=O)c1ccc(C#N)cc1)C1N(C)C(c2ccc(C#N)cc2)=NC1(C(F)(F)F)C(F)(F)F (centres unmarked) [Example R, N-[4,4-bis(trifluoromethyl)-4,5-dihydro-1-methyl-2-[4-cyanophenyl]-1H-imidazol-5-yl]-N-methyl-4-cyanobenzamide] | 5.70 | 4.89 | –
3 | CN(C(=O)C12CCC(C)(C(=O)O1)C2(C)C)C1N(C)C(c2ccc(F)cc2)=NC1(C(F)(F)F)C(F)(F)F (centres unmarked) [Example 26] | 4.35 | 4.02 | –
4 | CCCCCCC(=O)N(C)C1N(C)C(c2ccc(N3CCCCC3)cc2)=NC1(C(F)(F)F)C(F)(F)F (centres unmarked) [Example 33, N-[4,4-bis(trifluoromethyl)-4,5-dihydro-1-methyl-2-[4-(1-piperidinyl)phenyl]-1H-imidazol-5-yl]-N-methylheptanamide, hydrochloride] | 5.00 | 4.89 | –
5 | CCOc1ccc(C(=O)NC2N(C)C(c3ccc(F)cc3)=NC2(C(F)(F)F)C(F)(F)F)cc1 (centres unmarked) [Example 30, N-[4,4-bis(trifluoromethyl)-2-(4-fluorophenyl)-4,5-dihydro-1-methyl-1H-imidazol-5-yl]-4-ethoxybenzamide] | 5.22 | – | –
6 | CN1C(c2ccc(N3CCCCC3)cc2)=NC(C(F)(F)F)(C(F)(F)F)C1NC(=O)c1ccc(F)cc1 (centres unmarked) [Example 32, N-[4,4-bis(trifluoromethyl)-4,5-dihydro-1-methyl-2-[4-(1-piperidinyl)phenyl]-1H-imidazol-5-yl]-4-fluorobenzamide] | 5.70 | 4.77 | –
7 | COc1ccc(C(=O)N(C)C2N(C)C(c3ccc(F)cc3)=NC2(C(F)(F)F)C(F)(F)F)cc1 (centres unmarked) [Example 12, N-[4,4-bis(trifluoromethyl)-2-(4-fluorophenyl)-4,5-dihydro-1-methyl-1H-imidazol-5-yl]-4-methoxy-N-methylbenzamide] | 5.22 | – | –
8 | CN(C(=O)c1ccc(C(C)(C)C)cc1)C1N(C)C(c2ccc(F)cc2)=NC1(C(F)(F)F)C(F)(F)F (centres unmarked) [Example 13, N-[4,4-bis(trifluoromethyl)-2-(4-fluorophenyl)-4,5-dihydro-1-methyl-1H-imidazol-5-yl]-4-(1,1-dimethylethyl)-N-methylbenzamide] | 5.40 | 4.74 | –
9 | CCCCCCCCNC(=O)N(C)C1N(C)C(c2ccc(F)cc2)=NC1(C(F)(F)F)C(F)(F)F (centres unmarked) [Example 29, N-[4,4-bis(trifluoromethyl)-2-(4-fluorophenyl)-4,5-dihydro-1-methyl-1H-imidazol-5-yl]-N'-octyl-N-methylurea hydrochloride] | 4.80 | – | –
10 | COc1ccc(OC(=O)N=C2N(C)C(c3ccc(OC)cc3)=NC2(C(F)(F)F)C(F)(F)F)cc1 [Example 121] | – | – | 4.19
11 | Cc1ccc(OC(=O)N=C2N(C)C(c3ccc(C)cc3)=NC2(C(F)(F)F)C(F)(F)F)cc1 [Example 122] | – | – | 4.31
12 | CCCCCCCCCCCC(=O)N(C)C1N(C)C(c2ccc(F)cc2)=NC1(C(F)(F)F)C(F)(F)F (centres unmarked) [Example 17] | 5.22 | – | –

Second part, led by results:

Row | pIC50 [1, 3] | pIC50 [2] | SMILES | pIC50 [1]
13 | 5.72 | 4.47 | CN(C(=O)c1ccc(F)cc1)C1N(C)C(c2ccc(C#N)cc2)=NC1(C(F)(F)F)C(F)(F)F (centres unmarked) [Example Q, N-[4,4-bis(trifluoromethyl)-2-(4-cyanophenyl)-4,5-dihydro-1-methyl-1H-imidazol-5-yl]-N-methyl-4-fluorobenzamide] | –
14 | 4.70 | < 4.00 | CN1C(c2ccc(F)cc2)=NC(C(F)(F)F)(C(F)(F)F)C1=NC(=O)c1ccc(F)cc1 [Example 2, N-[4,4-bis(trifluoromethyl)-2-(4-fluorophenyl)-4,5-dihydro-1-methyl-1H-imidazol-5-ylidene]-4-fluoro-benzamide] | –
15 | 4.66 | – | CN(C(=O)Nc1ccc(F)cc1F)C1N(C)C(c2ccc(F)cc2)=NC1(C(F)(F)F)C(F)(F)F (centres unmarked) [Example 28, N-[4,4-bis(trifluoromethyl)-2-(4-fluorophenyl)-4,5-dihydro-1-methyl-1H-imidazol-5-yl]-N'-2,4-difluorophenyl-N-methylurea] | –
16 | 5.52 | 4.80 | CC(C)c1ccc(NC(=O)N(C)C2N(C)C(c3ccc(F)cc3)=NC2(C(F)(F)F)C(F)(F)F)cc1 (centres unmarked) [Example 27, N-[4,4-bis(trifluoromethyl)-2-(4-fluorophenyl)-4,5-dihydro-1-methyl-1H-imidazol-5-yl]-N'-4-isopropylphenyl-N-methylurea] | –
17 | 5.40 | – | CC(C)CCCC(=O)N(C)C1N(C)C(c2ccc(F)cc2)=NC1(C(F)(F)F)C(F)(F)F (centres unmarked) [Example 18, N-[4,4-bis(trifluoromethyl)-2-(4-fluorophenyl)-4,5-dihydro-1-methyl-1H-imidazol-5-yl]-N,5-dimethyl-hexanamide hydrochloride] | –
18 | 4.70 | 4.21 | Cc1ccc(C(=O)N=C2N(C)C(c3ccc(C)cc3)=NC2(C(F)(F)F)C(F)(F)F)cc1 [Example 5] | –
19 | 5.00 | 4.89 | CN1C(c2ccc(F)cc2)=NC(C(F)(F)F)(C(F)(F)F)C1NC(=O)c1ccc(N2CCCCC2)cc1 (centres unmarked) [Example 31, N-[4,4-bis(trifluoromethyl)-2-(4-fluorophenyl)-4,5-dihydro-1-methyl-1H-imidazol-5-yl]-4-(1-piperidinyl) benzamide] | –
20 | 4.72 | – | CN1C(=CC(=O)c2ccc(F)cc2)C(C(F)(F)F)(C(F)(F)F)N=C1c1ccc(F)cc1 [Example 96B, 2-[4,4-bis(trifluoromethyl)-2-(4-fluorophenyl)-4,5-dihydro-1-methyl-1H-imidazol-5-ylidene]-1-(4-fluorophenyl)-1-ethanone] | –
21 | < 4.00 | – | CN1C(=O)C(C(F)(F)F)(C(F)(F)F)N=C1c1ccc(F)cc1 [Example 123, 2-(4-fluorophenyl)-3,5-dihydro-3-methyl-4,4-bis(trifluoromethyl)-4H-imidazol-4-one] | –
22 | 4.39 | – | CN1C(c2ccc(F)cc2)=NC(C(F)(F)F)(C(F)(F)F)C1NC(=O)c1ccc(F)cc1 (centres unmarked) [Example 10, N-[4,4-bis-(trifluoromethyl)-2-(4-fluorophenyl)-4,5-dihydro-1-methyl-1H-imidazol-5-yl]-4-fluorobenzamide] | –

Source: US5428041A, “Antihypercholesterolemic bis-trifluoromethyl-substituted imidazolines and derivatives thereof” (The Du Pont Merck Pharmaceutical Company, priority 1992, dated 1995)
